Results: patent US10676538B2, “Inhibitors of Staphylococcus pseudintermedius sortase” (priority 2017, dated 2020)
Read-outs that look alike come from different tables or passages of the source.

Assays:
Sortase A = settings: 10 μM SrtA, 4 μM inhibitor
Method: The native enzyme, enzyme-inhibitor complex and appropriate controls were added to the wells of a 48-well plate (total reaction volume 10 μl/well). The reactions contained SYPRO orange (Invitrogen, Carlsbad, Calif.) purchased as a 5,000× stock and used at a 2× final concentration.

[1] = test system: S. pseudintermedius isolates; assay: flow cytometry of cell wall-associated Protein A on bacteria grown with inhibitor (indirect SrtA inhibition); type: cell-based, Staphylococcus pseudintermedius; settings: compared to control without inhibitor
Method: FIG. 4: […] bacterial isolates 08-3228, 08-1661, NA12, NA16 and NA45 were grown in the presence of inhibitor 1847 until exponential log phase. S. pseudintermedius recombinant SrtA inhibition was measured indirectly by determining the density of cell wall associated Protein A (one of the LPXTG proteins targeted by SrtA) using flow cytometry. Protein A was detected with FITC conjugated chicken anti-protein A (Gallus immunotech, Cary, N.C.). The values represent average from three independent experiments with the standard deviations shown at the top of each bar.
Inhibition of SrtA in bacterial cells was measured indirectly by measuring the decrease in the amount of Protein A on the bacterial surface using flow cytometry. Five representative S. pseudintermedius isolates were tested. […] Isolate NA45 was not affected by compound 1847.

[2] = test system: S. pseudintermedius recombinant SrtA; assay: in vitro FRET-based functional assay of recombinant SrtA; type: biochemical, Staphylococcus pseudintermedius; settings: compared to buffer controls, averages from three independent experiments
Method: Compounds predicted to bind to the active site were identified. Initially, from the 200 highest ranked compounds, twenty were selected. […] The assay to determine the functional activity of recombinant SrtA and its inhibition was performed in 96-well black microtiter plates with clear bottom (Corning, Fisher Scientific, Hampton, N.H.) in a final reaction volume of 200 μl. Fluorescent-quenched bacterial sortase substrate III, Abz/DNP (Abz-LPETG-K(Dnp)-NH2 (GenScript Inc., Piscataway, N.J.) dissolved in isopropanol was used for Km determination. Varying concentrations of the substrate (2.5 μM-200 μM) were incubated at 25° C. with 1 μM of SrtA diluted in assay buffer (50 mM Tris-HCl, 150 mM NaCl, 5 mM CaCl2, and 0.1% Triton X-100, pH 7.5). The increase in fluorescence was measured in a kinetic assay for 20 min at 2 min intervals using a Synergy HTX multimode reader (BioTek, Winooski, Vt.) at wavelengths 320 excitation/420 emission. The initial velocity V0 was determined from the linear portion of the curve and the Km was determined using the Michaelis-Menten equation where V=Vmax[S]/([S]+Km). To measure the effect of inhibitors recombinant SrtA was pre-incubated with varying amounts of the inhibitor at […] and subjected to the same FRET assay.

## O=S(=O)(O)c1ccc(N=Nc2ccccc2)cc1 [Compound 1847]
Sortase A; Srt A in His-Tag elution buffer
  melting temperature of 1847-stabilized Sortase A: 86.56 °C
Sortase A; Srt A in PBS
  melting temperature of 1847-stabilized Sortase A: 86.81 °C
[1]; isolate 06-3228
  reduction in the density of cell wall-associated Protein A: 38.7%
[1]; isolate 08-1661
  reduction in the density of cell wall-associated Protein A: 74.3%
[1]; isolate NA12
  reduction in the density of cell wall-associated Protein A: 42.8%
[1]; isolate NA16
  reduction in the density of cell wall-associated Protein A: 89.4%
[1]; isolate NA45
  reduction in the density of cell wall-associated Protein A: not affected
[2]
  inhibition of SrtA: 50-80%

## C[N+](C)(C)CCSS(C)(=O)=O.[Br-] [MTSET, reference compound]
[2]
  inhibition of SrtA: 57.5%

## N#Cc1ccc(NS(=O)(=O)Cc2ccccc2)cc1 [STK022091]
[2]
  inhibition of SrtA: did not have any detectable inhibitory effect
[2]; listed as SKT022091
  inhibition of SrtA: did not have inhibitory effect

## COc1ccc(N2CCN(S(=O)(=O)Cc3ccc(F)cc3)CC2)cc1 [STL223442]
[2]
  inhibition of SrtA: 13.75%
